{"source": "patent US11053219B2", "about": "“Substituted pyridines as TYK2 inhibitors” (FronThera U.S. Pharmaceuticals LLC, priority 2018, dated 2021)", "key": {"TYK2 (JH2 domain)": {"target": "TYK2 (JH2 domain) (Homo sapiens (Human), UniProt P29597)", "sequence (P29597 589-875)": "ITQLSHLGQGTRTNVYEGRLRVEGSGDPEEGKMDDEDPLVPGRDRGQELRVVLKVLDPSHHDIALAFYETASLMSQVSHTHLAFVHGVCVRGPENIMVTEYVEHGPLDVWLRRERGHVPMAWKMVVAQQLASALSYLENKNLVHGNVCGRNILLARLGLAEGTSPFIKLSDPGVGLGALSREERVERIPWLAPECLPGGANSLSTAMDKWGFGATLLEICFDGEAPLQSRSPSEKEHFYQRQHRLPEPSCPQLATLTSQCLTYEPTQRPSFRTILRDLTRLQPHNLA", "assay": "TYK2 JH2 domain binding assay (DiscoverX KINOMEscan)", "settings": "11-point 3-fold dilution, duplicate"}, "[1]": {"test_system": "INFα induced pSTAT5 in human PBMC", "assay": "INFα induced pSTAT5 in human PBMC", "format": "cell-based", "settings": "human PBMC, INFα 5000 units/ml; read-out: p-STAT5 IC50"}, "JAK2 (JH1 domain)": {"target": "JAK2 (JH1 domain) (Homo sapiens (Human), UniProt O60674)", "sequence (O60674 849-1124)": "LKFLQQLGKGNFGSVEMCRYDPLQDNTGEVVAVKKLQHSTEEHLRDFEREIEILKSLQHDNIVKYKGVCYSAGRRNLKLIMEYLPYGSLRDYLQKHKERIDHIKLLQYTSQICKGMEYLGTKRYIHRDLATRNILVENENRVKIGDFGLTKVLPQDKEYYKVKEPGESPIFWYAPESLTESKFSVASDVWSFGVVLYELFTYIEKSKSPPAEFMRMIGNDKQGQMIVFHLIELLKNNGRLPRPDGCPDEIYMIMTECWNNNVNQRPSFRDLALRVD", "assay": "JAK2 JH1 domain binding assay (KINOMEscan)", "description": "(§1) The assay is performed by combining three components: DNA-tagged kinase; immobilized ligand; and a test compound. The ability of the test compound to compete with the immobilized ligand is measured via quantitative PCR of the DNA tag.\n(§2) The liganded beads were blocked with excess biotin and washed with blocking buffer (SeaBlock (Pierce), 1% BSA, 0.05% Tween 20, 1 mM DTT) to remove unbound ligand and to reduce non-specific binding. […] Test compounds were prepared as 111× stocks in 100% DMSO. All test compounds were shipped to DiscoverX in DMSO with concentration of 10 mM. Kds were determined using an 11-point 3-fold compound dilution series with three DMSO control points. Each compound was tested in duplicate. […] The compounds were then diluted directly into the assays such that the final concentration of DMSO was 0.9%. All reactions performed in polypropylene 384-well plate. Each was a final volume of 0.02 ml. […] The kinase concentration in the eluates was measured by qPCR.\n(§3) The amount of kinase measured by qPCR (Signal; y-axis) is plotted against the corresponding compound concentration in nM in log 10 scale (x-axis). Binding constants (Kds) were calculated with a standard dose-response curve using the Hill equation:\n(§4) Similar to the method for TYK2 JH2 binding described above, JAK1 JH2 and JAK2 JH1 domain binding assay was performed using DiscoverX's KINOMEscan™, but with change of kinase domain."}, "JAK1 (JH2 domain)": {"target": "JAK1 (JH2 domain) (Homo sapiens (Human), UniProt P23458)", "sequence (P23458 583-855)": "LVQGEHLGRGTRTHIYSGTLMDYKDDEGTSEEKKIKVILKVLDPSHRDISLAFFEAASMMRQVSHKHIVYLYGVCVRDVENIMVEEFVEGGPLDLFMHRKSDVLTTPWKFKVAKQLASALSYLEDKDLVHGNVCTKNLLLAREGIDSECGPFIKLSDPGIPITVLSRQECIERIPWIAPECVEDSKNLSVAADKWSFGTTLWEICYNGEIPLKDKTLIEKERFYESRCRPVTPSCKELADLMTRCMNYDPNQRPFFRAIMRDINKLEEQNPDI", "assay": "JAK1 JH2 domain binding assay (KINOMEscan)", "description": "as §1, §2, §3, §4"}, "[2]": {"settings": "KINOMEscan, read-out: JAK1 (JH2 domain) binding Kd"}}, "note": "Where two headings read alike, the source gives them in different places.", "data": [{"compound": "[2H]C([2H])([2H])NC(=O)c1nnc(N2CCN(C(C)C)C2=O)cc1Nc1nccc(-c2ncn(C)n2)c1OC", "note": "[Example 147, 6-(3-isopropyl-2-oxo-imidazolidin-1-yl)-4-[[3-methoxy-4-(1-methyl-1,2,4-triazol-3-yl)-2-pyridyl]amino]-N-(trideuteriomethyl)pyridazine-3-carboxamide]", "values": [{"measurement": "Kd", "setting": "TYK2 (JH2 domain)", "result": "≤ 1", "unit": "nM"}, {"measurement": "IC50", "setting": "[1]", "result": "< 100", "unit": "nM"}, {"measurement": "Kd", "setting": "JAK2 (JH1 domain)", "result": "> 10000", "unit": "nM"}, {"measurement": "Kd", "setting": "JAK1 (JH2 domain); [2]", "result": "< 100", "unit": "nM"}]}, {"compound": "CC(C)(O)c1ccc(Nc2cc(Nc3ncccc3S(C)(=O)=O)c(C(=O)C3CC3)cn2)nc1F", "note": "[Example 159]", "values": [{"measurement": "Kd", "setting": "TYK2 (JH2 domain)", "result": "≤ 1", "unit": "nM"}, {"measurement": "IC50", "setting": "[1]", "result": "< 100", "unit": "nM"}, {"measurement": "Kd", "setting": "JAK2 (JH1 domain)", "result": "1000 to 10000", "unit": "nM"}, {"measurement": "Kd", "setting": "JAK1 (JH2 domain); [2]", "result": "< 100", "unit": "nM"}]}, {"compound": "CCC(=O)c1cnc(NC(=O)C2CC2)cc1Nc1nccc(-c2ncn(C)n2)c1OC", "note": "[Example 163]", "values": [{"measurement": "Kd", "setting": "TYK2 (JH2 domain)", "result": "≤ 1", "unit": "nM"}, {"measurement": "IC50", "setting": "[1]", "result": "< 100", "unit": "nM"}, {"measurement": "Kd", "setting": "JAK2 (JH1 domain)", "result": "100 to 1000", "unit": "nM"}, {"measurement": "Kd", "setting": "JAK1 (JH2 domain)", "result": "< 100", "unit": "nM"}]}, {"compound": "COc1c(-c2ncn(C)n2)ccnc1Nc1cc(NC(=O)C2CC2)ncc1C(=O)C1CC1", "note": "[Example 166]", "values": [{"measurement": "IC50", "setting": "[1]", "result": "< 100", "unit": "nM"}, {"measurement": "Kd", "setting": "JAK2 (JH1 domain)", "result": "1000 to 10000", "unit": "nM"}, {"measurement": "Kd", "setting": "JAK1 (JH2 domain); [2]", "result": "< 100", "unit": "nM"}]}]}
